Measured values published in patent US9725412B2, “Polymorphic forms of perindopril (L)-arginine and process for the preparation thereof” (Mylan Laboratories Limited, priority 2008, dated 2017).

Assays:
[1] = Transformation kinetics: solvent-mediated polymorph transformation (slurry in solvents, PXRD); type: physicochemical; details: for Result (polymorphic form by PXRD after slurry): stirred 12 hours; for Form conversion: stirred in toluene or acetonitrile for more than 15 hrs at room temperature; for Form conversion or dissociation: slurry in heptane
Description: Solvent-mediated polymorph transformations are an effective method to measure the physical stability for both metastable and thermodynamically stable polymorphs. This study is carried out by slurring 1 g of Form γ, amorphous and literature Form α of Perindopril (L)-Arginine salt in different solvents at 25 to 30° C. for several hours. The solid samples are then characterized by PXRD (example 10, Table 6).
1 g of Perindopril (L)-Arginine salt is suspended in appropriate solvents at different temperature and stirred for 12 hours to afford form γ of Perindopril (L)-Arginine.

[2] = Physical stability on drying and at humidity (RH >90%), by PXRD and Karl-Fisher; type: physicochemical
Description: The physical stability of the amorphous form, Form γ and literature Form α of Perindopril (L)-Arginine was determined by storing approximately 3.0 g of the sample a) at 50° C., b) at 70° C., c) at 100° C. and d) at 90% Relative Humidity (RH). […]

[3] = Solid state stability at accelerated stress conditions (40° C./75% relative humidity); type: physicochemical; details: 40° C./75% RH
Description: The present invention is to provide Perindopril (L)-Arginine (γ) form having the degree of crystallinity under 60%, which has enhanced stability to heat and humidity. According to the present invention, the obtained Perindopril (L)-Arginine (γ) form is subjected to accelerated stability at 40° C. and relative humidity (RH) 75%.
The samples were tested by PXRD, Karl-Fisher titrator and HPLC for final purity and degradation products.

[4] = Hygroscopic studies at different relative humidities; type: physicochemical; details: stored in different relative humidities for 1 to 3 months
[5] = tablets, temperate-climate countries; cited from earlier work

## CCC[C@H](N[C@@H](C)C(=O)N1[C@H](C(=O)O)C[C@@H]2CCCC[C@@H]21)C(=O)OCC.N=C(N)NCCC[C@H](N)C(=O)O [Amorphous, Perindopril (L)-Arginine]
[1]; ACN, volume 10, 25-30 ° C.
  Result (polymorphic form by PXRD after slurry): Form γ
[1]
  Form conversion: converted to form γ
[2]; Drying at 25° C., 3 hrs
  Results (polymorphic form by PXRD): Form γ
[2]; Humidity (RH >90%), 3 hrs
  Results (polymorphic form by PXRD): Form γ
[2]; Humidity (RH >90%), 3 hrs, listed as amorphous Perindopril Arginine salt
  Results (polymorphic form by PXRD): polymorphic form γ
[2]; in humidity
  Change in form: converted to Form γ

## CCC[C@H](N[C@@H](C)C(=O)N1[C@H](C(=O)O)C[C@@H]2CCCC[C@@H]21)C(=O)OCC.N=C(N)NCCC[C@H](N)C(=O)O [Form α, Perindopril (L)-Arginine]
[1]; ACN, volume 5, 25-30 ° C.
  Result (polymorphic form by PXRD after slurry): Form γ
[1]; ACN, volume 5, 70-80 ° C.
  Result (polymorphic form by PXRD after slurry): Form γ
[1]; Toluene, volume 5, 25-30 ° C.
  Result (polymorphic form by PXRD after slurry): Form γ
[1]; n-heptane, volume 5, 25-30 ° C.
  Result (polymorphic form by PXRD after slurry): Form α
[1]
  Form conversion or dissociation: No discernible form conversion or dissociation
  Form conversion: converted to form γ
[2]; Drying at 70° C., 3 days
  Results (polymorphic form by PXRD): Form α
[2]; Drying at 100° C., 7 days
  Results (polymorphic form by PXRD): Form α
[2]; Humidity (RH >90%), 15 hrs
  Results (polymorphic form by PXRD): Form γ
[2]; in humidity
  Change in form: converted to Form γ

## CCC[C@H](N[C@@H](C)C(=O)N1[C@H](C(=O)O)C[C@@H]2CCCC[C@@H]21)C(=O)OCC.N=C(N)NCCC[C@H](N)C(=O)O [Form γ, Perindopril (L)-Arginine]
[1]; ACN, volume 10, 80 ° C.
  Result (polymorphic form by PXRD after slurry): Form v
[1]; Toluene, volume 10, 110 ° C.
  Result (polymorphic form by PXRD after slurry): Form γ
[1]; conclusion from stability and slurry observations
  Relative thermodynamic stability: thermodynamically more stable than Perindopril (L)-Arginine amorphous and form α
[1]; n-heptane, volume 10, 60-80 ° C.
  Result (polymorphic form by PXRD after slurry): Form γ
[1]
  Form conversion or dissociation: No discernible form conversion or dissociation
[2]; Drying at 70° C., 3 days
  Results (polymorphic form by PXRD): Form γ
[2]; Drying at 100° C., 7 days
  Results (polymorphic form by PXRD): Form γ
[2]; Humidity (RH >90%), 15 hrs
  Results (polymorphic form by PXRD): Form γ
[2]; both drying and humid conditions
  Change in form: no change in form
[3]; After 1 month
  PXRD: Same as initial
  Purity (%) (HPLC): 99.2%
  m/c (%) (moisture content, Karl-Fisher): 4.4%
[3]; After 2 months
  PXRD: Same as initial
  Purity (%) (HPLC): 99.1%
  m/c (%) (moisture content, Karl-Fisher): 5.0%
[3]; After 15 days
  PXRD: Same as initial
  Purity (%) (HPLC): 99.2%
  m/c (%) (moisture content, Karl-Fisher): 4.2%
[3]; Initial
  PXRD: Form γ
  Purity (%) (HPLC): 99.1%
  m/c (%) (moisture content, Karl-Fisher): 3.8%
[3]; accelerated stability
  Chemical and physical stability: chemically and physically very stable
  Degradation in HPLC: no degradation
  Increase in moisture content: no substantial increase
[4]
  Increase in moisture content: no substantial increase in moisture content

## CC(C)(C)N.CCC[C@H](N[C@@H](C)C(=O)N1[C@H](C(=O)O)C[C@@H]2CCCC[C@@H]21)C(=O)OCC [Perindopril tert-butylamine salt]
[5]
  Shelf-life: ≤ 2 years
